Source: patent US8802597B2, “Herbicidal pyrimidines” (E I du Pont de Nemours and Company, priority 2003, dated 2014)
Where two headings read alike, the source gives them in different places.

Key:
Format in all cases: in vivo
[1] = test system: Surinam grass (Brachiaria decumbens); assay: Test B pre/postemergence; settings: Urochloa decumbens; for pest or weed control at 125 g/ha: 125 g ai/ha; for pest or weed control at 500 g/ha: 500 g ai/ha
Procedure, shortened: (§1)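 Visual injury scored 0 (no effect) to 100 (complete control) versus untreated controls after 13 to 15 days in greenhouse. Treatments were pre- or postemergence sprays of surfactant-containing solvent formulations; postemergence plants at 1- to 4-leaf stage, 2 to 18 cm.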

[2] = test system: barnyardgrass (Echinochloa crus-galli); assay: Test B pre/postemergence; settings: Echinochloa crus-galli; for pest or weed control at 125 g/ha: 125 g ai/ha; for pest or weed control at 500 g/ha: 500 g ai/ha
Procedure, shortened: as §1

[3] = test system: cocklebur (Xanthium strumarium); assay: Test B pre/postemergence; settings: Xanthium strumarium; for pest or weed control at 125 g/ha: 125 g ai/ha; for pest or weed control at 500 g/ha: 500 g ai/ha
Procedure, shortened: as §1

corn (Zea mays) = assay: Test B pre/postemergence; settings: Zea mays
Procedure, shortened: as §1

[4] = test system: crabgrass (Digitaria sanguinalis); assay: Test B pre/postemergence; settings: Digitaria sanguinalis; for pest or weed control at 125 g/ha: 125 g ai/ha; for pest or weed control at 500 g/ha: 500 g ai/ha
Procedure, shortened: as §1

[5] = test system: giant foxtail (Setaria faberii); assay: Test B pre/postemergence; settings: Setaria faberi; for pest or weed control at 125 g/ha: 125 g ai/ha; for pest or weed control at 500 g/ha: 500 g ai/ha
Procedure, shortened: as §1

[6] = test system: lambsquarters (Chenopodium album); assay: Test B pre/postemergence; settings: Chenopodium album; for pest or weed control at 125 g/ha: 125 g ai/ha; for pest or weed control at 500 g/ha: 500 g ai/ha
Procedure, shortened: as §1

[7] = test system: morningglory (Ipomoea coccinea); assay: Test B pre/postemergence; settings: Ipomoea; for pest or weed control at 125 g/ha: 125 g ai/ha; for pest or weed control at 500 g/ha: 500 g ai/ha
Procedure, shortened: as §1

[8] = test system: pigweed (Amaranthus retroflexus); assay: Test B pre/postemergence; settings: Amaranthus retroflexus; for pest or weed control at 125 g/ha: 125 g ai/ha; for pest or weed control at 500 g/ha: 500 g ai/ha
Procedure, shortened: as §1

[9] = test system: velvetleaf (Abutilon theophrasti); assay: Test B pre/postemergence; settings: Abutilon theophrasti; for pest or weed control at 125 g/ha: 125 g ai/ha; for pest or weed control at 500 g/ha: 500 g ai/ha
Procedure, shortened: as §1

[10] = test system: wheat (Triticum aestivum); assay: Test B pre/postemergence; settings: Triticum aestivum; for plant injury at 125 g/ha: 125 g ai/ha; for plant injury at 500 g/ha: 500 g ai/ha
Procedure, shortened: as §1

[11] = test system: blackgrass (Alopecurus myosuroides); assay: Test B postemergence; settings: Alopecurus myosuroides, post-emergence
Procedure, shortened: as §1

wild oat (Avena fatua) = assay: Test B postemergence; settings: Avena fatua, post-emergence
Procedure, shortened: as §1

[12] = test system: barnyardgrass (Echinochloa crus-galli); assay: Test B flooded paddy test; settings: Echinochloa crus-galli, Flood, 1000 g ai/ha; scale 0 (no effect) to 100 (complete control); read-out: Plant response rating, Barnyardgrass
Procedure, shortened: (§2)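 Rice, umbrella sedge, duck salad and barnyardgrass grown to 2-leaf stage under flooded paddy conditions and treated with formulated test chemicals. Kept in greenhouse 13–15 days, then visually rated against untreated controls on a 0–100 scale (0 no effect, 100 complete control).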

[13] = test system: duck salad (Heteranthera limosa); assay: Test B flooded paddy test; settings: Heteranthera limosa, Flood, 1000 g ai/ha; scale 0 to 100; read-out: Plant response rating, Ducksalad
Procedure, shortened: as §2

rice (Oryza sativa) = assay: Test B flooded paddy test; settings: Oryza sativa, Flood, 1000 g ai/ha; scale 0 to 100; read-out: Plant response rating, Rice
Procedure, shortened: as §2

[14] = test system: umbrella sedge (Cyperus difformis); assay: Test B flooded paddy test; settings: Cyperus difformis, Flood, 1000 g ai/ha; scale 0 to 100; read-out: Plant response rating, Sedge, Umbrella
Procedure, shortened: as §2

COC(=O)c1nc(C2CC2)nc(N)c1I [Compound 7]
pest or weed control at 125 g/ha ([1]; post-emergence, Postemergence, scale 0 to 100 (0 no effect, 100 complete control), read-out: Surinam Grass plant response rating): 0%
pest or weed control at 500 g/ha ([1]; post-emergence, Postemergence, scale 0 to 100, read-out: Plant response rating, Surinam Grass): 20%
pest or weed control at 125 g/ha ([1]; pre-emergence, Preemergence, scale 0 to 100 (0 no effect, 100 complete control), read-out: Plant response rating, Surinam Grass): 0%
pest or weed control at 500 g/ha ([1]; pre-emergence, Preemergence, scale 0 to 100 (0 no effect, 100 complete control), read-out: Surinam Grass plant response rating): 0%
pest or weed control at 125 g/ha ([2]; post-emergence, Postemergence, scale 0 to 100 (0 no effect, 100 complete control), read-out: Barnyardgrass plant response rating): 0%
pest or weed control at 500 g/ha ([2]; post-emergence, Postemergence, scale 0 to 100, read-out: Plant response rating, Barnyardgrass): 30%
pest or weed control at 125 g/ha ([2]; pre-emergence, Preemergence, scale 0 to 100 (0 no effect, 100 complete control), read-out: Plant response rating, Barnyardgrass): 0%
pest or weed control at 500 g/ha ([2]; pre-emergence, Preemergence, scale 0 to 100 (0 no effect, 100 complete control), read-out: Barnyardgrass plant response rating): 30%
pest or weed control at 125 g/ha ([3]; post-emergence, Postemergence, scale 0 to 100 (0 no effect, 100 complete control), read-out: Cocklebur plant response rating): 90%
pest or weed control at 500 g/ha ([3]; post-emergence, Postemergence, scale 0 to 100, read-out: Plant response rating, Cocklebur): 100%
pest or weed control at 125 g/ha ([3]; pre-emergence, Preemergence, scale 0 to 100 (0 no effect, 100 complete control), read-out: Plant response rating, Cocklebur): 70%
pest or weed control at 500 g/ha ([3]; pre-emergence, Preemergence, scale 0 to 100 (0 no effect, 100 complete control), read-out: Cocklebur plant response rating): 80%
plant injury at 125 g/ha (corn (Zea mays); post-emergence, Postemergence, 125 g ai/ha, scale 0 to 100 (0 no effect, 100 complete control), read-out: Corn plant response rating): 0%
Corn plant response rating (crop injury, 0 = no effect, 100 = complete kill) at 500 g/ha (corn (Zea mays); post-emergence, Postemergence, 500 g ai/ha, scale 0 to 100): 30%
Corn plant response rating (crop injury, 0 = no effect, 100 = complete kill) at 125 g/ha (corn (Zea mays); pre-emergence, Preemergence, 125 g ai/ha, scale 0 to 100 (0 no effect, 100 complete control)): 0%
plant injury at 500 g/ha (corn (Zea mays); pre-emergence, Preemergence, 500 g ai/ha, scale 0 to 100 (0 no effect, 100 complete control), read-out: Corn plant response rating): 0%
pest or weed control at 125 g/ha ([4]; post-emergence, Postemergence, scale 0 to 100 (0 no effect, 100 complete control), read-out: Crabgrass plant response rating): 10%
pest or weed control at 500 g/ha ([4]; post-emergence, Postemergence, scale 0 to 100, read-out: Plant response rating, Crabgrass): 30%
pest or weed control at 125 g/ha ([4]; pre-emergence, Preemergence, scale 0 to 100 (0 no effect, 100 complete control), read-out: Plant response rating, Crabgrass): 0%
pest or weed control at 500 g/ha ([4]; pre-emergence, Preemergence, scale 0 to 100 (0 no effect, 100 complete control), read-out: Crabgrass plant response rating): 30%
pest or weed control at 125 g/ha ([5]; post-emergence, Postemergence, scale 0 to 100 (0 no effect, 100 complete control), read-out: Foxtail, Giant plant response rating): 20%
pest or weed control at 500 g/ha ([5]; post-emergence, Postemergence, scale 0 to 100, read-out: Plant response rating, Foxtail, Giant): 40%
pest or weed control at 125 g/ha ([5]; pre-emergence, Preemergence, scale 0 to 100 (0 no effect, 100 complete control), read-out: Plant response rating, Foxtail, Giant): 0%
pest or weed control at 500 g/ha ([5]; pre-emergence, Preemergence, scale 0 to 100 (0 no effect, 100 complete control), read-out: Foxtail, Giant plant response rating): 0%
pest or weed control at 125 g/ha ([6]; post-emergence, Postemergence, scale 0 to 100 (0 no effect, 100 complete control), read-out: Lambsquarters plant response rating): 80%
pest or weed control at 500 g/ha ([6]; post-emergence, Postemergence, scale 0 to 100, read-out: Plant response rating, Lambsquarters): 100%
pest or weed control at 125 g/ha ([6]; pre-emergence, Preemergence, scale 0 to 100 (0 no effect, 100 complete control), read-out: Plant response rating, Lambsquarters): 80%
pest or weed control at 500 g/ha ([6]; pre-emergence, Preemergence, scale 0 to 100 (0 no effect, 100 complete control), read-out: Lambsquarters plant response rating): 90%
pest or weed control at 125 g/ha ([7]; post-emergence, Postemergence, scale 0 to 100 (0 no effect, 100 complete control), read-out: Morningglory plant response rating): 80%
pest or weed control at 500 g/ha ([7]; post-emergence, Postemergence, scale 0 to 100, read-out: Plant response rating, Morningglory): 90%
pest or weed control at 125 g/ha ([7]; pre-emergence, Preemergence, scale 0 to 100 (0 no effect, 100 complete control), read-out: Plant response rating, Morningglory): 70%
pest or weed control at 500 g/ha ([7]; pre-emergence, Preemergence, scale 0 to 100 (0 no effect, 100 complete control), read-out: Morningglory plant response rating): 80%
pest or weed control at 125 g/ha ([8]; post-emergence, Postemergence, scale 0 to 100 (0 no effect, 100 complete control), read-out: Pigweed plant response rating): 0%
pest or weed control at 500 g/ha ([8]; post-emergence, Postemergence, scale 0 to 100, read-out: Plant response rating, Pigweed): 90%
pest or weed control at 125 g/ha ([8]; pre-emergence, Preemergence, scale 0 to 100 (0 no effect, 100 complete control), read-out: Plant response rating, Pigweed): 90%
pest or weed control at 500 g/ha ([8]; pre-emergence, Preemergence, scale 0 to 100 (0 no effect, 100 complete control), read-out: Pigweed plant response rating): 90%
pest or weed control at 125 g/ha ([9]; post-emergence, Postemergence, scale 0 to 100 (0 no effect, 100 complete control), read-out: Velvetleaf plant response rating): 50%
pest or weed control at 500 g/ha ([9]; post-emergence, Postemergence, scale 0 to 100, read-out: Plant response rating, Velvetleaf): 90%
pest or weed control at 125 g/ha ([9]; pre-emergence, Preemergence, scale 0 to 100 (0 no effect, 100 complete control), read-out: Plant response rating, Velvetleaf): 50%
pest or weed control at 500 g/ha ([9]; pre-emergence, Preemergence, scale 0 to 100 (0 no effect, 100 complete control), read-out: Velvetleaf plant response rating): 80%
plant injury at 125 g/ha ([10]; post-emergence, Postemergence, scale 0 to 100 (0 no effect, 100 complete control), read-out: Wheat plant response rating): 50%
plant injury at 500 g/ha ([10]; post-emergence, Postemergence, scale 0 to 100, read-out: Plant response rating, Wheat): 80%
plant injury at 125 g/ha ([10]; pre-emergence, Preemergence, scale 0 to 100 (0 no effect, 100 complete control), read-out: Plant response rating, Wheat): 0%
plant injury at 500 g/ha ([10]; pre-emergence, Preemergence, scale 0 to 100 (0 no effect, 100 complete control), read-out: Wheat plant response rating): 30%
pest or weed control at 125 g/ha ([11]; 125 g ai/ha, scale 0 to 100 (0 no effect, 100 complete control), read-out: Blackgrass plant response rating): 60%
pest or weed control at 500 g/ha ([11]; 500 g ai/ha, scale 0 to 100, read-out: Plant response rating, Blackgrass): 80%
pest or weed control at 125 g/ha (wild oat (Avena fatua); 125 g ai/ha, scale 0 to 100 (0 no effect, 100 complete control), read-out: Oat, Wild plant response rating): 40%
pest or weed control at 500 g/ha (wild oat (Avena fatua); 500 g ai/ha, scale 0 to 100, read-out: Plant response rating, Oat, Wild): 70%
pest or weed control at 1000 g/ha [12]: 20%
pest or weed control at 1000 g/ha [13]: 0%
plant injury at 1000 g/ha (rice (Oryza sativa)): 0%
pest or weed control at 1000 g/ha [14]: 0%
